Data taken from patent US9271978B2 (Zenith Epigenetics Corp., priority 2012, dated 2016).

Experiments:
IL-6 and IL-17 cytokines = assay: In vivo efficacy in mouse endotoxemia model; conditions: C57/B16 mice, oral 75 mg/kg, inhibition in IL-6 and IL-17 post 4-h LPS challenge 0.5 mg/kg i.p.
Protocol: Sub lethal doses of Endotoxin (E. Coli bacterial lipopolysaccharide) were administered to animals to produce a generalized inflammatory response which was monitored by increases in secreted cytokines. Compounds were administered to C57/B16 mice orally at 75 mg/kg dose to evaluate inhibition in IL-6 and IL-17 cytokines post 4-h challenge with lipopolysaccharide (LPS) at 0.5 mg/kg dose intraperitoneally.

[1] = system: Rat collagen-induced arthritis; assay: In vivo efficacy in rat collagen-induced arthritis; conditions: female Lewis rats, dosed Day 11 to Day 17
Protocol: Rat collagen-induced arthritis is an experimental model of polyarthritis that has been widely used for preclinical testing of numerous anti-arthritic agents. Following administration of collagen, this model establishes a measurable polyarticular inflammation, marked cartilage destruction in association with pannus formation and mild to moderate bone resorption and periosteal bone proliferation. In this model, collagen was administered to female Lewis strain of rats on Day 1 and 7 of study and dosed with compounds from Day 11 to Day 17. Test compounds were evaluated to assess the potential to inhibit the inflammation (including paw swelling), cartilage destruction and bone resorption in arthritic rats, using a model in which the treatment is administered after the disease has been established.

[2] = molecular target: T1, second bromodomain of Brd2 (BRD2(2)) (Homo sapiens, UniProt P25440); assay: Inhibition of tetra-acetylated histone H4 binding to Brd2 bromodomain 2 (TR-FRET); parameters: key: Active: Compounds with an IC50 value less than 30 μM were deemed to be active.; Not Active: Compounds with an IC50 value less than 30 μM were deemed to be active; conditions: tetra-acetylated histone H4 peptide, active = IC50 <30 μM
T1 construct: made in house; host or cells: E. coli BL21 (DE3)
T1 sequence (P25440 344-453 limits assumed): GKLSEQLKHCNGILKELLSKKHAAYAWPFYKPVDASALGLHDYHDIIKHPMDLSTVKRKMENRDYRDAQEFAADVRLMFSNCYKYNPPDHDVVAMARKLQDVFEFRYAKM
Method in brief: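 N-terminally His-tagged bromodomains (200 nM), expressed in E. coli, were incubated with biotinylated tetra-acetylated histone H4 peptide (25-50 nM), Eu-cryptate streptavidin and XL665 anti-His antibody in HEPES pH 7.4 buffer with KF, 0.2% DMSO, 2 h at room temperature. Inhibition read as decreased 665/620 nm TR-FRET; IC50 from dose-response curves.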

Structure (SMILES) | In vivo activity (IL-6 and IL-17 cytokines) | In vivo activity [1] | FRET activity (IC50 <30 μM) BRD2(2) [2]
Cc1noc(C)c1-c1ccc(=O)n(Cc2ccc(Cl)cc2)c1 [Example 128, 1-(4-Chlorobenzyl)-5-(3,5-dimethylisoxazol-4-yl)pyridin-2(1H)-one] | Active | Active | Active
Cc1noc(C)c1-c1ccc(=O)n(Cc2ccccc2)c1 [Example 56, 1-Benzyl-5-(3,5-dimethylisoxazol-4-yl)pyridin-2(1H)-one] | Active |  | Active
Cc1noc(C)c1-c1cc(N)c(=O)n(Cc2ccccc2)c1 [Example 73, 3-Amino-1-benzyl-5-(3,5-dimethylisoxazol-4-yl)pyridin-2(1H)-one] |  |  | Active
Cc1noc(C)c1-c1ccc(=O)n([C@H](C)c2ccccc2)c1 [Example 134, (R)-5-(3,5-Dimethylisoxazol-4-yl)-1-(1-phenylethyl)pyridin-2(1H)-one] |  |  | Active
